Key:
F508del/R1070W-CFTR [1] = target: T1, F508del/R1070W-CFTR (Homo sapiens, UniProt P13569, DEL508-508/R1070W); assay: Protein maturation assay (WB, band C/(C+B)) in transfected HEK293 cells; assay type: cell-based; details: HEK293, 24 h; ARN23765 10 nM, VX-661 3 μM
T1 construct: CFTR identification in pull-down studies and analysis of full-length CFTR in protein maturation assays; expressed in transfected cells; host or cells: HEK293 (transient)
Description: HEK293 cells were plated in 24-wells at around 80% of confluence and transfected with constructs coding for F508del-CFTR or mutants using JetPEI reagent (101000053, Polyplus Technology) following the manufacturer’s instructions. After 24 h, the correctors were added for a further 24 h. […] For binding site analysis experiments, the cells were kept either at 37 °C (Figure S8) or moved to 30 °C (Figure 9) during incubation with the selected correctors. VX-445 and corrector 3151 were mixed together as a control for maximal protein correction. DMSO (0.2%) was added to nontreated controls. After treatment, cells were lysed in RIPA buffer [50 mM tris-HCl pH 8, 150 mM NaCl, 1% NP40, 0.5% sodium deoxycolate, 0.1% SDS, 2.0 mM EDTA] and lysates were analyzed with WB, as described in the supplementary methods of the Supporting Information.

F508del/R1070W-CFTR [2] = target: T1, F508del/R1070W-CFTR; assay: FLIPR membrane potential assay of CFTR channel activity in transfected HEK293 cells; assay type: cell-based; details: HEK293, 24 h; ARN23765 10 nM, VX-661 3 μM
Description: HS-YFP-based assay for CFTR activity
Twenty-four hours after seeding on 96-well plates, CFBE41o- cells stably over-expressing F508del-CFTR and the HS-YFP were treated with test compounds at different concentrations in the 3 nM-10 µM range.1 Cells treated with vehicle alone (DMSO) and with ARN23765, respectively, served as negative and positive controls. The following day, cells were washed with PBS containing (in mM) 137 NaCl, 2.7 KCl, 8.1 Na2HPO4, 1.5 KH2PO4, 1.0 CaCl2, and 0.5 MgCl2. Cells were then incubated for 25 min with […] of PBS plus forskolin (20 µM) and VX-770 (1 µM) to maximally stimulate F508del-CFTR. Cells were then transferred to a microplate reader (FluoStar Galaxy; BMG Labtech, Offenburg, Germany) for CFTR activity determination. The plate reader was equipped with high-quality excitation (HQ500/20X: 500 ± 10 nm) and emission (HQ535/30M: 535 ± 15 nm) filters for YFP (Chroma Technology). Each assay comprised a continuous 14 s fluorescence reading, 2 s before and 12 s after injection of […] of an iodide-containing solution (PBS with Cl- replaced by I-; final I- concentration […]). Data were normalized to the initial background-subtracted fluorescence. […]
Cell lysates or eluates from pull-down experiments were resolved by SDS-PAGE on 4-8 % tris-acetate gels (EA0378BOX, Life technologies) and were transferred into PVDF membranes (Immobilion-E IEVH00005, Millipore). […] Images were acquired with Chemidoc MP (BIO-RAD laboratories) and quantified with Image J software.
CFTR Channel function analysis by fluorometric imaging plate reader functional (FLIPR) assay FLIPR assay was performed as previously described.3 Briefly, HEK293 cells were seeded in 96-well plates (black, flat bottom, Corning) and transfected with mutated CFTR constructs. […]
µM) for 24 h at 30 °C or 37 °C. […] The plate was then read in a fluorescence plate reader (SpectraMax i3, Molecular Devices) at 37 °C (excitation: 530 nm, emission: 560 nm). […] CFTR-mediated depolarization was detected as an increase in fluorescence. […] The peak changes in fluorescence were normalized to fluorescence immediately […]

T1 sequence (P13569 with tags, fused parts or gaps DEL508-508/R1070W): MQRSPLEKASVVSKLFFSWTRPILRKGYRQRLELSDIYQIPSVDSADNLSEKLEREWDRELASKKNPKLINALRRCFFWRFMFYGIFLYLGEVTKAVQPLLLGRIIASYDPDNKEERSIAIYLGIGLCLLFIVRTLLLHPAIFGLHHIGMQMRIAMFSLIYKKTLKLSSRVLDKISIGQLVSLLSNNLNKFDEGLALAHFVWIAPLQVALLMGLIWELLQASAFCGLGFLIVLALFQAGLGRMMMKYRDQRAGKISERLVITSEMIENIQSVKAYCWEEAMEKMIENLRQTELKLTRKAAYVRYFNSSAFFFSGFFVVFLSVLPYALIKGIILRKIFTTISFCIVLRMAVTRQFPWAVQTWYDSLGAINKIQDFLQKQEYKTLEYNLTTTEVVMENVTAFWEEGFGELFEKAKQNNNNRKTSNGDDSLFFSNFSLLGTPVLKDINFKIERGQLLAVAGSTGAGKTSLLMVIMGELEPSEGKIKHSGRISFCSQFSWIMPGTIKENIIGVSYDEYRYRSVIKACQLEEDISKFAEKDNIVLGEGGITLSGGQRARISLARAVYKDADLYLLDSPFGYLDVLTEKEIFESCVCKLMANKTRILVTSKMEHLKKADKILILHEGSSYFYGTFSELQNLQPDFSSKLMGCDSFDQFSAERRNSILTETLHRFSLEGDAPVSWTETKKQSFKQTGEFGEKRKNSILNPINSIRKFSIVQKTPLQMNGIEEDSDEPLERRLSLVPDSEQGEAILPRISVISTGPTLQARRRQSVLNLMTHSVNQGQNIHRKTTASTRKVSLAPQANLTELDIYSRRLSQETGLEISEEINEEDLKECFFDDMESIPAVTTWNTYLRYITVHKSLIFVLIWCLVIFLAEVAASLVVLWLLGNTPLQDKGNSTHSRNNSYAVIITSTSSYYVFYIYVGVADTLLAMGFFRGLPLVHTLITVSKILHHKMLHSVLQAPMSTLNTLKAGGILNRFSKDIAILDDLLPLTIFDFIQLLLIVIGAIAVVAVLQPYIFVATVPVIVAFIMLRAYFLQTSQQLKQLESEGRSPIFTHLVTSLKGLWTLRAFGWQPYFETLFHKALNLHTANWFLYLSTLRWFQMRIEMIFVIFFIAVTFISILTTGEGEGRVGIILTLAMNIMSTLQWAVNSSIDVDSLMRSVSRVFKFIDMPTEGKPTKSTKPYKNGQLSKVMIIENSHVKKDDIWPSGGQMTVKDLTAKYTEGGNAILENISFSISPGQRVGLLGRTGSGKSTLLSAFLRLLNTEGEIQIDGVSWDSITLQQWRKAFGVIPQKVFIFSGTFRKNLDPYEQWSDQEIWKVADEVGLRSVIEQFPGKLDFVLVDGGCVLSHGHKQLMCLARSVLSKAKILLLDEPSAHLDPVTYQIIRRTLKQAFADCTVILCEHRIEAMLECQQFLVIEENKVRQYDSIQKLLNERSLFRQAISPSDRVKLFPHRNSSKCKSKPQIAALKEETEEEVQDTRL

- F508del/R1070W protein maturation (F508del/R1070W-CFTR [1]): further enhanced
- F508del/R1070W channel activity (FLIPR) (F508del/R1070W-CFTR [2]): further enhanced
SMILES: CC(C)(CO)c1cc2cc(NC(=O)C3(c4ccc5c(c4)OC(F)(F)O5)CC3)c(F)cc2n1C[C@@H](O)CO [VX-661, tezacaftor, reference compound]

— publication PMC11873939, “Target Identification with Live-Cell Photoaffinity Labeling and Mechanism of Action Elucidation of ARN23765, a Highly Potent CFTR Corrector” (Journal of Medicinal Chemistry, 2025)
